Where a name gives a salt, the structure may show the parent alone. Read-outs that look alike come from different tables or passages of the source.

The test system of series [1] is U373 human glioblastoma cell line. Put plainly: MTT cytotoxicity assay, U373 glioblastoma cells. The following applies: for IC50: Homo sapiens, U373 MG. On the procedure:
The cytotoxicity assay of various compounds against human brain tumor cell lines was performed using the MTT (3-[4,5-dimethylthiazol-2-yl]-2,5-diphenyl tetrazolium bromide) assay (Boehringer Mannheim Corp., Indianapolis, Ind.). Briefly, exponentially growing brain tumor cells were seeded into a 96-well plate at a density of 2.5×10^4 cells/well and incubated for 36 hours at 37° C. prior to drug exposure. […] Triplicate wells were used for each treatment.
Human glioblastoma cell line U373 was obtained from American. Type Culture Collection (Rockville, Md.) and maintained as a continuous cell line in Dulbecco's modified Eagles's medium supplemented with 10% fetal bovine serum and antibiotics. The B-lineage acute lymphoblastic leukemia cell line Nalm-6 was used as a negative control.
The cells were incubated with the various compounds for 24-36 hours at 37° C. in a humidified 5% CO2 atmosphere. To each well, 10 μl of MTT (0.5 mg/ml final concentration) was added and the plates were incubated at 37° C. for 4 hours to allow MTT to form formazan crystals by reacting with metabolically active cells. The formazan crystals were solubilized overnight at 37° C. in a solution containing 10% SDS in 0.01 M HCl. The absorbence of each well was measured in a microplate reader (Labsystems) at 540 nm and a reference wavelength of 690 nm. To translate the OD540 values into the number of live cells in each well, the OD540 values were compared to those on standard OD540—versus—cell number curves generated for each cell line. The percent survival was calculated using the formula: [formula]
The IC50 values were calculated by non linear regression analysis.
(Formazan colour is commonly taken as a measure of viable cells.)

A further series relates to U373 cells. Kind of series: Adhesion of glioblastoma cells to ECM protein-coated plates. Format: cell-based, human. The conditions noted are these: for IC50: Homo sapiens, U373 MG, one bound for all three coatings, read-out: all IC50 values, adhesion to laminin-, fibronectin- and collagen-coated plates. On the procedure:
In vitro adhesion assays were performed to (a) study the baseline adhesive properties of various glioblastoma cell lines and (b) evaluate the effects of quinazoline derivatives on the adhesive properties of glioblastoma cells. The plates for the adhesion assays were precoated with the extracellular matrix proteins laminin, fibronectin or type IV collagen (each at a final concentration of 1 μg/ml in PBS) overnight at 4° C. and dried. On the day of the experiment, the wells were rehydrated and blocked with 10% bovine serum albumin in PBS for 1 hour at room temperature and used for the adhesion assays, as described below.
DMSO (0.1%) was included as a vehicle control. After treatment, cells were detached from the flasks with 0.05% trypsin (Life Technologies) resuspended in DMEM, incubated at 37° C. for 2 hours to allow them to recover from the trypsinization stress and examined for their ability to adhere to plates precoated with ECM proteins.
In adhesion assays, cells were centrifuged, washed twice with serum-free DMEM, counted and resuspended in serum-free DMEM to a final concentration of 2.5×10^5 cells/ml. One hundred μl of the cell suspension containing 2.5×10^4 cells were added to each well and cells were allow d to adhere for 1 hour at 37° C. in a humidified 5% CO2 atmosphere. The adherent fraction was quantitated using MTT (3-[4,5-dimethylthiazol-2-yl]-2,5-diphenyltetrazolium bromide) assays. […] The adherent fractions of cells treated with quinazoline derivatives were compared to those of DMSO-treated control cells and the percent inhibition of adhesion was determined sing the formula: [formula]
Each treatment condition was evaluate d in duplicate in 3 independent experiments.

Another series concerns U373 glioblastoma cells. Put plainly: Glioblastoma cell invasion through Matrigel matrix (Boyden chambers). Format: cell-based. The following applies: Homo sapiens, U373 MG. On the procedure: The in vitro invasiveness of glioblastoma cells was assayed using a previously published method which employs Matrigel-coated Costar 24-well transwell cell culture chambers (“Boyden chambers”) with 8.0-μm-pore polycarbonate filter inserts (Albini, A., Iwamoto, Y., Kleinman, H. K., Martin, G. R., Aaronson, S. A., Kozlowski, J. M., and McEwan, R. N., 1987, Cancer Res., 47:3239-3245). The chamber filters were coated with 50 μg/ml of Matrigel matrix, incubated overnight at room temperature under a laminar flow hood and stored at 4° C. Matrigel matrix is made up of several components of the extralcellular matrix (ECM), including collagens, laminin and proteo-glycans
On the day of the experiment, the coated inserts were rehydrated with 0.5 ml serum-free DMEM containing 0.1% bovine serum albumin for 1-2 hours. To study the effects of quinazoline derivatives on invasiveness of glioblastoma cells, exponentially growing cells were incubated overnight with WHI-P97, WHI-P131 and WHI-P154 at various concentrations ranging from 1 μM to 50 μM. The cells were trypsinized, washed twice with serum-free DMEM containing BSA, counted and resuspended at 1×10^5 cells/ml. 0.5 ml cell suspension containing 5×10^4 cells in a serum-free DMEM containing quinazoline compounds or vehicle was added to the Matrigel-coated and rehydrated filter inserts. Next, 750 μl of NIH fibroblast conditioned medium was placed as a chemoattractant in 24-well plates and the inserts were placed in wells and incubated at 37° C. for 48 hours. […] The invasive cells that migrated to the lower side of the filter were fixed, stained with Hema-3 solutions and counted under microscope. Five to 10 random fields per filter were counted to determine the mean (±SE) values for the invasive fraction. The invasive fractions of cells treated with quinazoline derivatives were compared to those of DMSO treated control cells and he percent inhibition of invasiveness was determined using the formula: [formula]
Each treatment condition was evaluated in duplicate in 3 independent experiments. IC50 values were calculated by non-linear regression analysis using Graphpad Prisin Software Version 2.0 (Graphpad Software Inc., San Diego, Calif.).

[2] abbreviates: U373, 3 independent experiments, 48 hours, read-out: mean IC50 value, invasion through Matrigel matrix.
The mark [3] stands for this setting: U373, 3 independent experiments, read-out: range of IC50 values, invasion through Matrigel matrix.
[4] abbreviates: read-out: IC50 value derived from the average values of three experiments, invasion.

One may read the IC50 as the midpoint of a concentration-inhibition curve. Take `COc1cc2ncnc(Nc3cc4ccccc4cc3O)c2cc1OC` [WHI-P292, 4-(2′-Hydroxy-naphthyl-3′)-amino-6,7-dimethoxyquinazoline]: in series [1], inhibition was half-maximal at 38.2 µM (IC50).

For `COc1cc2ncnc(Nc3cccc(Br)c3)c2cc1OC` [WHI-P79, 4-(3′-Bromophenyl)-amino-6,7-dimethoxyquinazoline], the IC50 in the series on U373 cells was more than 50 µM.

As for `COc1cc2ncnc(Nc3cc(Br)c(O)c(Br)c3)c2cc1OC` [WHI-P97, 4-(3′, 5′-Dibromo-4′-hydroxylphenyl)-amino-6,7-dimethoxyquinazoline], the IC50 is 10.6 ± 1.8 µM in the series with U373 glioblastoma cells (setting [2]), 9.57 to 11.6 µM in the series on U373 glioblastoma cells (setting [3]) and 9.58 µM in the series with U373 glioblastoma cells (setting [4]).

By melting point is commonly meant the temperature, or range, at which the solid turns liquid. As for `COc1cc2ncnc(Nc3ccc(C)c(Br)c3)c2cc1OC` [WHI-P111, 4-(3′-Bromo-4′-methylphenyl)-amino-6,7-dimethoxyquinazoline], the melting point lay within 225 to 228 °C.

With `COc1cc2ncnc(Nc3ccc(O)cc3)c2cc1OC` [WHI-P131, 4-(4′-Hydroxylphenyl)-amino-6,7-dimethoxyquinazoline], the IC50 was more than 50 µM in the series with U373 cells, 7.07 ± 1.8 µM in the series on U373 glioblastoma cells (setting [2]), 5.08 to 8.59 µM with U373 glioblastoma cells (setting [3]) and 7.95 µM in the series on U373 glioblastoma cells (setting [4]).

Take `COc1cc2ncnc(Nc3cc4ccccc4cc3O)c2cc1OC` (as salt: salt) [WHI-P292, 4-(2′-Hydroxy-naphthyl-3′)-amino-6,7-dimethoxyquinazoline]: the melting point lay within 277 to 279 °C.

In the case of `O=c1c(-c2ccc(O)cc2)coc2cc(O)cc(O)c12` [genistein, reference compound], in series [1] (read-out: IC50 value), the IC50 is more than 250 µM. In addition, the “cytotoxicity against brain tumor cells (in words)” value in series [1] (U373, MTT, 0.1 to 250 μM, FIGS. 1A and 1B) is “also ineffective”. The “inhibition of glioblastoma cell adhesion (in words)” value in the series with U373 cells (ECM-coated plates) is “did not affect glioblastoma cell adhesion and motility”.

The values are drawn from patent US6552027B2, “Quinazolines for treating brain tumor” (Parker Hughes Institute, priority 1998, dated 2003).
